In patent publication US9920017B2, “Heterocyclic compounds as pesticides” (BAYER CROPSCIENCE AKTIENGESELLSCHAFT, priority 2014, dated 2018):

System: Meloidogyne incognita
Test: Meloidogyne incognita test (MELGIN)
Type: in vivo
Conditions: 20 ppm; lettuce; after 14 days
Method: Meloidogyne incognita Test (MELGIN) Solvent: 125.0 parts by weight of acetone To produce a suitable active ingredient formulation, 1 part by weight of active ingredient is mixed with the stated amount of solvent and the concentrate is diluted with water to the desired concentration. Vessels are filled with sand, active ingredient solution, an egg/larvae suspension of the southern root-knot nematode (Meloidogyne incognita) and lettuce seeds. The lettuce seeds germinate and the plants develop. The galls develop on the roots. After 14 days, the nematicidal efficacy in % is determined by the formation of galls. 100% means that no galls were found; 0% means that the number of galls on the treated plants corresponds to the untreated control.

| Structure (SMILES) | nematicidal efficacy (formation of galls) [%] |
| --- | --- |
| O=C(Nc1ncn(-c2ccccc2Cl)n1)c1ccccc1Br [Compound I-1-4] | 90 |
| O=C(Nc1ncn(-c2ccccc2C(F)(F)F)n1)c1ccccc1C(F)(F)F [Compound I-1-8] | 100 |
| O=C(Nc1ncn(-c2c(F)cccc2F)n1)c1ccccc1Br [Compound I-1-12] | 90 |
| O=C(Nc1ncn(-c2c(F)cccc2F)n1)c1ccccc1Cl [Compound I-1-13, 2-Chloro-N-[1-(2,6-difluorophenyl)-1H-1,2,4-triazol-3-yl]benzamide] | 100 |
| Cc1ccccc1C(=O)Nc1ncn(-c2c(F)cccc2F)n1 [Compound I-1-14] | 100 |
| CCc1ccccc1C(=O)Nc1ncn(-c2c(F)cccc2F)n1 [Compound I-1-15] | 100 |

System: not listed separately
Test: Determination of log P values by HPLC (reversed-phase C18)
Type: physicochemical
Conditions: HPLC, reversed-phase C18, 55° C.; final compounds table
Method: 1) Description of Method for Determination of the Log P Values ([…]) The log P values given in the table were determined in accordance with EEC Directive 79/831 Annex V.A8 by HPLC (High Performance Liquid Chromatography) using a reversed-phase column (C 18). Temperature: 55° C. […] Gradient: from 10% eluent A/90% eluent B to 95% eluent A/5% eluent B in 4.25 min. Calibration was effected with unbranched alkan-2-ones (having 3 to 16 carbon atoms) with known log P values (log P values determined on the basis of the retention times by linear interpolation between two successive alkanones). The lambda max values were determined in the maxima of the chromatographic signals using the UV spectra from 200 nm to 400 nm.

| Structure (SMILES) | log P neutral |
| --- | --- |
| O=C(Nc1ncn(-c2ccccc2Cl)n1)c1ccccc1Br [Compound I-1-4] | 1.97 |
| O=C(Nc1ncn(-c2ccccc2C(F)(F)F)n1)c1ccccc1C(F)(F)F [Compound I-1-8] | 2.24 |
| O=C(Nc1ncn(-c2c(F)cccc2F)n1)c1ccccc1Br [Compound I-1-12] | 1.80 |
| Cc1ccccc1C(=O)Nc1ncn(-c2c(F)cccc2F)n1 [Compound I-1-14] | 1.72 |
| COc1ccccc1C(=O)Nc1ncn(-c2c(F)cccc2F)n1 [Compound I-1-16] | 1.91 |
| O=C(Nc1ncn(-c2c(F)cccc2F)n1)c1ccccc1OC(F)(F)F [Compound I-1-17] | 2.14 |
| O=C(Nc1ncn(-c2c(F)cccc2F)n1)c1cccnc1Cl [Compound I-1-23] | 1.24 |
| O=C(Nc1ncn(-c2c(F)cccc2Cl)n1)c1ccccc1OC(F)(F)F [Compound I-1-34] | 2.30 |
| O=C(Nc1ncn(-c2c(F)cccc2Cl)n1)c1ccccc1Cl [Compound I-1-36] | 1.83 |
| Cc1cccc(F)c1-n1cnc(NC(=O)c2ccccc2C(F)(F)F)n1 [Compound I-1-37] | 2.19 |
| Cc1cccc(F)c1-n1cnc(NC(=O)c2ccccc2Cl)n1 [Compound I-1-38] | 1.99 |
| Cc1cccc(F)c1-n1cnc(NC(=O)c2ccccc2I)n1 [Compound I-1-39] | 2.13 |
| Cc1cccc(Cl)c1-n1cnc(NC(=O)c2ccccc2Cl)n1 [Compound I-1-41] | 2.04 |
| CCc1cccc(Cl)c1-n1cnc(NC(=O)c2ccccc2Cl)n1 [Compound I-1-43] | 2.36 |
| Cc1cccc(C)c1-n1cnc(NC(=O)c2ccccc2Cl)n1 [Compound I-1-47] | 2.04 |
| Cc1cccc(C)c1-n1cnc(NC(=O)c2ccccc2C(F)(F)F)n1 [Compound I-1-48] | 2.26 |
| COc1cccc(C)c1-n1cnc(NC(=O)c2ccccc2C(F)(F)F)n1 [Compound I-1-49] | 2.15 |
| COc1cccc(C)c1-n1cnc(NC(=O)c2ccccc2Cl)n1 [Compound I-1-50] | 1.95 |
| O=C(Nc1ncn(-c2cccc(Cl)c2Cl)n1)c1ccccc1C(F)(F)F [Compound I-1-51] | 2.49 |

| Structure (SMILES) | log P neutral |
| --- | --- |
| O=C(Nc1ncn(-c2cccc(Cl)c2Cl)n1)c1ccccc1Cl [Compound I-1-52] | 2.29 |
| O=C(Nc1ncn(-c2ccc(Cl)cc2Cl)n1)c1ccccc1C(F)(F)F [Compound I-1-53] | 2.58 |
| O=C(Nc1ncn(-c2cc(Cl)ccc2Cl)n1)c1ccccc1C(F)(F)F [Compound I-1-54] | 2.55 |
| O=C(Nc1ncn(-c2cc(Cl)ccc2Cl)n1)c1ccccc1Cl [Compound I-1-55] | 2.34 |
| O=C(Nc1ncn(-c2c(F)c(F)c(F)c(F)c2F)n1)c1ccccc1Cl [Compound I-1-66] | 2.28 |
| CCc1ccccc1C(=O)Nc1ncn(-c2c(F)c(F)c(F)c(F)c2F)n1 [Compound I-1-68] | 2.61 |
| O=C(Nc1ncn(-c2ccccc2Br)n1)c1ccccc1Cl [Compound I-1-71] | 1.96 |
| CCc1ccccc1C(=O)Nc1ncn(-c2ccccc2Br)n1 [Compound I-1-73] | 2.34 |
| O=C(Nc1ncn(-c2ccccc2I)n1)c1ccccc1Cl [Compound I-1-76] | 2.01 |
| O=C(Nc1ncn(-c2ccccc2I)n1)c1ccccc1I [Compound I-1-77] | 2.15 |
| CCc1ccccc1C(=O)Nc1ncn(-c2ccccc2I)n1 [Compound I-1-78] | 2.31 |
| CCc1ccccc1C(=O)Nc1ncn(-c2c(Br)cccc2Br)n1 [Compound I-1-81] | 2.45 |
| O=C(Nc1ncn(-c2c(F)cccc2I)n1)c1ccccc1Cl [Compound I-1-84] | 2.02 |
| O=C(Nc1ncn(-c2c(Br)cc(F)cc2Br)n1)c1ccccc1Cl [Compound I-1-88] | 2.26 |
| O=C(Nc1ncn(-c2c(F)cccc2F)n1)c1ccsc1I [Compound I-1-94] | 1.92 |
| CCc1ccccc1C(=O)Nc1ncn(-c2ccccc2C(F)(F)F)n1 [Compound I-1-95] | 2.33 |
| Cc1cc(C)c(S(=O)(=O)CC(F)(F)F)cc1-n1cnc(NC(=O)c2ccccc2C(F)(F)F)n1 [Compound I-1-96] | 2.49 |
| Cc1cc(C)c(-n2cnc(NC(=O)c3ccccc3C(F)(F)F)n2)cc1SCC(F)(F)F [Compound I-1-98] | 3.21 |

Same assay, conditions: compounds of formula (IIa-1), R3 hydrogen

| Structure (SMILES) | logP (neutral) |
| --- | --- |
| Nc1ncn(-c2c(Br)cc(F)cc2Br)n1 [IIa-1 R1=Br R2m=6-Br-4-F] | 1.35 |
| Nc1ncn(-c2c(Br)cccc2Br)n1 [IIa-1 R1=Br R2m=6-Br] | 1.2 |
| Nc1ncn(-c2ccccc2Br)n1 [IIa-1 R1=Br R2m=—] | 1.03 |
| Nc1ncn(-c2ccccc2C(F)(F)F)n1 [IIa-1 R1=CF3 R2m=—] | 1.16 |
| COc1cccc(C)c1-n1cnc(N)n1 [IIa-1 R1=CH3 R2m=6-OCH3] | 0.98 |
| Nc1ncn(-c2cccc(Cl)c2Cl)n1 [IIa-1 R1=Cl R2m=3-Cl] | 1.41 |
| Nc1ncn(-c2ccc(Cl)cc2Cl)n1 [IIa-1 R1=Cl R2m=4-Cl] | 1.48 |
| Nc1ncn(-c2cc(Cl)ccc2Cl)n1 [IIa-1 R1=Cl R2m=5% Cl:] | 1.44 |
| Nc1ncn(-c2c(Cl)cccc2Cl)n1 [IIa-1 R1=Cl R2m=6% Cl:] | 0.94 |
| CCc1cccc(Cl)c1-n1cnc(N)n1 [IIa-1 R1=Cl R2m=6-C2H5] | 1.12 |
| Cc1cccc(Cl)c1-n1cnc(N)n1 [IIa-1 R1=Cl R2m=6-CH3] | 1.12 |
| Nc1ncn(-c2c(F)cccc2Cl)n1 [IIa-1 R1=Cl R2m=6-F] | 0.86 |
| Nc1ncn(-c2ccccc2Cl)n1 [IIa-1 R1=Cl R2m=—] | 0.96 |
| Nc1ncn(-c2c(F)c(F)c(F)c(F)c2F)n1 [IIa-1 R1=F R2m=3,4,5,6-F4] | 1.31 |
| Nc1ncn(-c2c(F)ccc(F)c2F)n1 [IIa-1 R1=F R2m=3,6-F2-phenyl] | 0.84 |
| Nc1ncn(-c2c(F)cc(F)cc2F)n1 [IIa-1 R1=F R2m=4,6-F2] | 0.82 |
| Cc1cccc(F)c1-n1cnc(N)n1 [IIa-1 R1=F R2m=6-CH3] | 1.03 |
| Nc1ncn(-c2c(F)cccc2I)n1 [IIa-1 R1=F R2m=6-I] | 1.07 |
| Nc1ncn(-c2ccccc2F)n1 [IIa-1 R1=F R2m=—] | 0.86 |
| Nc1ncn(-c2ccccc2I)n1 [IIa-1 R1=I R2m=—] | 1.13 |
| Nc1ncn(-c2ccccc2OC(F)(F)F)n1 [IIa-1 R1=OCF3 R2m=—] | 1.44 |

Same assay, conditions: reversed-phase C18 HPLC column, pH 3.4; HPLC-MS, preparation examples; read-out: log P

| Structure (SMILES) | chromatographic logP |
| --- | --- |
| COc1ccccc1-n1nnc(NC(=O)c2ccccc2C(F)(F)F)n1 [Compound I-2-1, N-[2-(2-Methoxyphenyl)-2H-tetrazol-5-yl]-2-(trifluoromethyl)benzamide] | 2.19 |
| COc1cc(F)ccc1-n1nnc(NC(=O)c2ccccc2C(F)(F)F)n1 [Compound I-2-2, N-[2-(4-Fluoro-2-methoxyphenyl)-2H-tetrazol-5-yl]-2-(trifluoromethyl)benzamide] | 2.35 |
| O=C(Nc1nn[nH]n1)c1ccccc1C(F)(F)F [N-(2H-Tetrazol-5-yl)-2-(trifluoromethyl)benzamide] | 1.17 |

Same assay, conditions: reversed-phase C18 HPLC column; HPLC, reversed-phase C18, 55° C.; final compounds table; read-out: log P neutral

| Structure (SMILES) | chromatographic logP |
| --- | --- |
| COc1ccccc1-n1nnc(NC(=O)c2ccccc2C(F)(F)F)n1 [Compound I-2-1, N-[2-(2-Methoxyphenyl)-2H-tetrazol-5-yl]-2-(trifluoromethyl)benzamide] | 2.19 |
| COc1cc(F)ccc1-n1nnc(NC(=O)c2ccccc2C(F)(F)F)n1 [Compound I-2-2, N-[2-(4-Fluoro-2-methoxyphenyl)-2H-tetrazol-5-yl]-2-(trifluoromethyl)benzamide] | 2.35 |

Same assay, conditions: reversed-phase C18 HPLC column; HPLC-MS, preparation examples; read-out: log P (neutral)

| Structure (SMILES) | chromatographic logP |
| --- | --- |
| O=C(Nc1ncn(-c2c(F)cccc2F)n1)c1ccccc1Cl [Compound I-1-13, 2-Chloro-N-[1-(2,6-difluorophenyl)-1H-1,2,4-triazol-3-yl]benzamide] | 1.73 |
| CCc1ccccc1C(=O)Nc1ncn(-c2c(F)cccc2F)n1 [Compound I-1-15] | 2.05 |
| CCO/C=N/c1noc(-c2ccccc2)n1 [Ethyl [5-phenyl-1,2,4-oxadiazol-3-yl]imidoformate] | 2.87 |
| CO/C(=N\C#N)c1ccccc1 [Methyl N-cyanobenzenecarboximidoate] | 1.83 |
| O=C(Nc1ncn(-c2c(F)cccc2F)n1)c1ccccc1 [N-[1-(2,6-Difluorophenyl)-1H-1,2,4-triazol-3-yl]benzamide] | 1.59 |
| O=C(Nc1ncn(-c2c(F)cccc2Br)n1)c1ccccc1 [N-[1-(2-Bromo-6-fluorophenyl)-1H-1,2,4-triazol-3-yl]benzamide] | 1.79 |
| O=C(Nc1ncn(-c2ncc(F)cc2F)n1)c1ccccc1 [N-[1-(3,5-Difluoropyridin-2-yl)-1H-1,2,4-triazol-3-yl]benzamide] | 1.36 |
| O=C(Nc1ncn(-c2c(F)cccc2C(F)(F)F)n1)c1ccccc1 [N-{1-[2-Fluoro-6-(trifluoromethyl)phenyl]-1H-1,2,4-triazol-3-yl}benzamide] | 1.95 |
